In patent publication US20260071150A1, “MICROBIAL ENHANCED COMPOSITIONS WHICH OVERCOME ANTAGONISTIC SURFACTANT INCOMPATIBILITY” (Stepan Company, priority 2023, published 2026):
Read-outs that look alike come from different tables or passages of the source.

Key:
[1] = tested on: Bacillus species mix in spore form; assay: un-dyed EVOO test, visual haze; details: for biological activity (haze), low foam alkoxylate with additives: 1.0 wt % TOXIMUL 8240, 0.09 wt % L-alanine; for biological activity (haze), magnesium salt in the additive: 0.2 wt % rhamnolipids, 0.03 wt % L-alanine, 0.03 wt % potassium nitrate, 0.14 wt % magnesium salt
Experimental: Comparative compositions were also prepared comprising the surfactant and bacterial spores, but no additive. Control compositions contained the bacterial spores, with and without additives, but no surfactant. All test, comparative and control compositions contained 2 wt % of 3.3 g/L Nutrient Mix. The pH was adjusted to pH of 7 if needed, using L-lactic acid or dilute NaOH. The compositions were photographed initially, then re-photographed after 4 and 5-7 days of orbital-mixer shaking at setting “5”, and initial and aged compositions were compared visually to determine differences.

[2] = physical stability (spore dispersion) of test compositions; format: physicochemical
Experimental: The alpha sulfonated alkyl ester test compositions from Example 3 were used for this stability assessment because, unexpectedly, the spores in some of the test compositions remained fully dispersed in the compositions after sitting for 1 week, even though the test compositions were at use dilution and water thin. Physical stability of the test compositions was assessed by photographing the test compositions in the parent sample jars (from which the Example 3 samples were taken), looking down on the sample jars, and quantifying the degree of precipitation via Tracker.jar image analysis.

[3] = tested on: Bacillus species mix in spore form; assay: dyed extra-virgin olive oil (EVOO) digestion test with Stat-Ease 360 optimization; format: cell-based
Experimental: Because EVOO is a food source for vegetative cells, lightly-dyed EVOO added to a test sample containing bacterial spores can be an indicator of biological activity. […] Each test composition also included 0.20 g of 33 g/L Nutrient Mix (30 g/L Tryptic Soy Broth BD211825 and 3 g/L Yeast Extract BD212750 at pH 7.1-7.4). The test composition is mixed, then stored at 37° C. for 2-3 days to condition the spores. […] The initial oil drop is digitally photographed, and re-photographed after 4 days of gentle swirling on an orbital shaker at a setting of 1-2 on a scale of 0-10. Oil drop sizes are determined by transferring the photographed images to a computer and measuring the major diameter of each oil drop using a Tracker.jar line profile analysis (https://physlets.org/tracker/) to determine the length of the diameter in units of pixels. Oil drop sizes of initial and digested test samples are compared. […] An increase in measured drop diameter is interpreted as a change in surface tension due to the surfactant, combined with no or minimal EVOO digestion by the bacteria.
Stat-Ease 360 software was used to generate each design of experiment sample group, model the test results from the resulting data, and generate statistics for the optimal models. The models were then used to generate an optimization plot using Stat-Ease 360's Numerical Optimization function. The optimization includes a contour plot of “desirability” of component levels for the defined design space. These plots visually represent the complex relationships between the surfactant and additive components and show where desired performance is high and where it is low or zero.

[4] = tested on: beneficial microorganisms; assay: compatibility of surfactants and builders with beneficial microorganisms; format: cell-based
Experimental: The compositions of the present technology comprise at least one surfactant that is incompatible with a beneficial microorganism. Incompatibility between a surfactant and a beneficial microorganism has been investigated in various ways, such as a standard Zone of Inhibition test, a standard agar plating test, or a standard resazurin (7-hydroxy-10-oxidophenoxazin-10-ium-3-one, sodium) (a blue fluorogenic dye) compatibility assay. In a Zone of Inhibition test, microorganisms are grown, cultured, diluted down to target levels, and then applied to a Petri dish containing agar nutrients. Test samples containing the surfactant of interest are diluted and loaded into an agar well created within the agar nutrient. The plates are incubated and microorganism growth is allowed to develop. […] This halo is referred to as the zone of inhibition. The larger the zone, the bigger the effect of inhibition. Major suitability limitations for non-antibiotics test samples for this test method are inherent large dilution of active, agar diffusion challenges, and nutrient media incompatibilities (neutralization, precipitation, etc). Although this method has been used in the medical field for antibiotics very successfully for decades, it has low suitability when testing non-antibiotic samples. In a standard agar plating test, test samples containing the surfactant of interest and microorganisms are exposed, diluted several orders of magnitude, and plated onto a nutritive agar that is incubated. After an incubation period appropriate for the species, the microorganism growth pattern is evaluated against appropriate controls. […] The test samples are incubated and then inspected for colorometric and fluorescence change. Test samples that are blue and have low fluorescence indicate no biological activity and incompatibility between the surfactant and the microorganism. Test samples that are pink and have high fluorescence indicate biological activity and compatibility of the surfactant with the microorganism. […]

Bacillus spore blend = assay: diluted concentrate EVOO haze test; format: cell-based
Experimental: Concentrates of two test formulations were prepared comprising the alkyl ether sulfate surfactant at 7.5 wt % actives, a Bacillus spore blend at 10.0 wt % (5×10^9 CFU/g), a mixture of 0.75 wt % potassium chloride and 0.75 wt % magnesium nitrate, and water to total 100%. Castor oil 36EO alkoxylate (TOXIMUL® 8240) (100% active) in an amount of 1.5 wt % was added to one of the test formulations. Two comparative concentrate compositions were also prepared. One comparative composition comprised the same amount of surfactant and spores but no additive or TOXIMUL® 8240, and the other comparative composition comprised the same amount of surfactant, spores, and TOXIMUL® 8240, but no additive. A total of 20 g of each concentrate composition was prepared.
For the test, each concentrate composition was diluted to 2.0 wt % (1×10^8 CFU/g) in a 4 oz glass jar, with 1 wt % 33 g/L Nutrient (30 g/L Tryptic Soy Broth+3 g/L Yeast Extract), 0.2 wt % Extra Virgin Olive Oil (EVOO), and water to total 50.0 g total weight. The jars were mixed on the orbital shaker for 15-30 minutes and initially photographed, and then mixed on the orbital shaker for 7 days and re-photographed.
Concentrates of the four test formulations were prepared comprising the calcium alkyl benzene sulfonate surfactant at 7.5 wt % actives, a Bacillus spore blend at 10.0 wt % (5×10^9 CFU/g), 1.5 wt % of the respective additive mixture, and water to total 100%. Each concentrate was 20 g total weight. Two control concentrates were also prepared. The positive control concentrate contained 10 wt % of the Bacillus spore blend and water, and the negative control concentrate contained 10 wt % of the Bacillus spore blend, 7.5 wt % surfactant actives, and water.

[5] = surfactant 0.2 wt % active, 0.09 wt % potassium nitrate, 0.02 wt % magnesium chloride hexahydrate, 7 days
[6] = alkyl sarcosinate MAPROSYL 30-B, FIG. 3
[7] = alpha-sulfonated alkyl ester ALPHA-STEP PC-48, additives with glucose, FIG. 5
[8] = alpha-sulfonated alkyl ester ALPHA-STEP PC-48, additives without glucose, FIG. 4
[9] = concentrate 7.5 wt % surfactant actives diluted to 2.0 wt %

With isodecyl-1PO-8EO [DA-1PO-8EO] the “biological activity (haze), low foam alkoxylate with additives” value [1, 5] was “increased biological activity” and the “biological activity (haze), low foam alkoxylate without additives” value ([1]; surfactant 0.2 wt % active, 1.0 wt % TOXIMUL 8240, no additive, 7 days) was “the most sign of inhibition”.

With O=[N+]([O-])[O-].[K+] [KNO3, potassium nitrate] the “desirability (contour plot combining digestion and physical stability)” value ([2]; alpha sulfonated alkyl ester test compositions of Example 3, FIG. 10) was “higher desirability”, the “desirability (optimization contour plot of EVOO digestion)” value [3, 6] was “high desirability” and the “desirability (optimization contour plot of EVOO digestion)” value [3, 7] was “high desirability”. The “desirability (optimization contour plot of EVOO digestion)” value [3, 8] was “high desirability”.

In the case of O=C([O-])CC(O)(CC(=O)[O-])C(=O)O.[Mg+2] [Mg(Citrate) dibasic], the “biological activity (haze), magnesium salt in the additive” value (from here on “biological activity … in the additive”) ([1]; 7 days) is reported as “restore biological activity”.

In the case of O=[N+]([O-])[O-].O=[N+]([O-])[O-].[Mg+2] [Mg(NO3)2, magnesium nitrate], the “biological activity … in the additive” value ([1]; 7 days) is reported as “restore biological activity”.

For O=C([O-])[C@H](O)[C@@H](O)[C@H](O)[C@H](O)CO.[Na+] [sodium gluconate], the “compatibility with beneficial microorganisms” value (“compatibility” below) [4] was “compatible”.

With calcium alkyl benzene sulfonate the “haze after 7 days, equal amounts of the additive components” value (Bacillus spore blend; 7.5 wt % surfactant actives, 0.5 wt % of each of L-alanine, Mg(NO3)2 and KCl, diluted to 2.0 wt %) was “some increase in haze”, the “haze after 7 days, L-alanine as the majority additive component” value (Bacillus spore blend; 7.5 wt % surfactant actives, 1.0 wt % L-Alanine + 0.25 wt % each of KCl and Mg(NO3)2, diluted to 2.0 wt %) was “some increase in haze” and the “haze after 7 days, Mg(NO3)2 as the majority additive component” value (Bacillus spore blend; 7.5 wt % surfactant actives, 1.0 wt % Mg(NO3)2 and 0.25 wt % each of L-alanine and KCl, diluted to 2.0 wt %) was “some increase in haze”. The “haziness after 7 days, surfactant without additive (negative control)” value (Bacillus spore blend; [9]) was “reduced haziness”.

In the case of C[C@H](N)C(=O)O [L-alanine], the “desirability (contour plot combining digestion and physical stability)” value [2] is reported as “higher desirability”, the “desirability (optimization contour plot of EVOO digestion)” value [3, 6] is reported as “high desirability” and the “desirability (optimization contour plot of EVOO digestion)” value [3, 7] is reported as “low to zero desirability”. For the same compound, the “desirability (optimization contour plot of EVOO digestion)” value [3, 8] was “high desirability” and the “desirability (optimization contour plot of EVOO digestion)” value ([3]; rhamnolipid surfactant, additives without glucose, FIG. 1) was “high desirability”.

With O=S(=O)([O-])[O-].[Mg+2] [MgSO4, magnesium sulfate] the “biological activity … in the additive” value ([1]; 7 days) was “restore biological activity”.

With C=CCCCCCCCC(=O)N(C)C [STEPOSOL MET-10U] the “compatibility” value [4] was “compatible”.

In the case of “sodium laureth sulfate [alkyl ether sulfate]”, the “haze after 7 days, 1.5 wt % TOXIMUL 8240, no additive” value (Bacillus spore blend; [9]) is reported as “lack of haze”, the “haze after 7 days, no additive, no TOXIMUL 8240” value (Bacillus spore blend; [9]) is reported as “lack of haze” and the “haze after 7 days, additive and TOXIMUL 8240” value (Bacillus spore blend; concentrate 7.5 wt % surfactant actives, 0.75 wt % potassium chloride, 0.75 wt % magnesium nitrate, 1.5 wt % TOXIMUL 8240, diluted to 2.0 wt %) is reported as “increase in haze”. The “haze after 7 days, additive, no TOXIMUL 8240” value (Bacillus spore blend; concentrate 7.5 wt % surfactant actives, 0.75 wt % potassium chloride, 0.75 wt % magnesium nitrate, diluted to 2.0 wt %) was “lack of haze”.

In the case of O.O.O=C([O-])CC(O)(CC(=O)[O-])C(=O)[O-].[Na+].[Na+].[Na+] [sodium citrate dihydrate], the “compatibility” value [4] is reported as “compatible”.

In the case of “cocoamidopropyl hydroxysultaine [AMPHOSOL® CS-50]”, the “biological activity (haze) of bacterial spores, surfactant with additives” value ([1]; surfactant 0.2 wt % active, 0.09 wt % L-alanine, 0.09 wt % potassium nitrate, 0.02 wt % magnesium chloride hexahydrate, 7 days) is reported as “shows haze, indicative of biological activity” and the “biological activity (haze) of bacterial spores, surfactant without additives” value ([1]; surfactant 0.2 wt % active, no additive, 1×10^7 CFU/g, 7 days orbital shaking) is reported as “inhibits biological activity”.

With “C12-C14 monoethanolamide-7EO-4PO [C42 MEA Amide-7EO-4PO]” the “biological activity (haze), low foam alkoxylate with additives” value [1, 5] was “increased biological activity”.
